Test results as given in ChEMBL document CHEMBL4725357, “Elucidating the Structural Requirement of Uridylpeptide Antibiotics for Antibacterial Activity” (J Med Chem, 2020).
Values after ≈ are worked out from the molar mass of the structure shown. Each block holds one compound with its values, some of them ahead of it.

Assays:
[1] = Inhibition of Staphylococcus aureus MraY using UDPMurNAc-dansylpentapeptide as substrate incubated for 3 hrs by fluorescence method
[2] = tested on: Pseudomonas aeruginosa; assay: Antibacterial activity against Pseudomonas aeruginosa PAO1 incubated for 18 hrs by CLSI based broth microdilution method; assay type: functional
[3] = tested on: Pseudomonas aeruginosa; assay: Antibacterial activity against Pseudomonas aeruginosa isolate 1485 incubated for 18 hrs by CLSI based broth microdilution method; assay type: functional
[4] = tested on: Pseudomonas aeruginosa; assay: Antibacterial activity against multidrug-resistant Pseudomonas aeruginosa MDRP62 incubated for 18 hrs by CLSI based broth microdilution method; assay type: functional
[5] = tested on: Pseudomonas aeruginosa; assay: Antibacterial activity against Pseudomonas aeruginosa isolate 9728b incubated for 18 hrs by CLSI based broth microdilution method; assay type: functional
[6] = tested on: Pseudomonas aeruginosa; assay: Antibacterial activity against Pseudomonas aeruginosa serotype A IID1001 incubated for 18 hrs by CLSI based broth microdilution method; assay type: functional
[7] = tested on: Pseudomonas aeruginosa; assay: Antibacterial activity against Pseudomonas aeruginosa serotype I IID1010 incubated for 18 hrs by CLSI based broth microdilution method; assay type: functional
[8] = tested on: Pseudomonas aeruginosa; assay: Antibacterial activity against Pseudomonas aeruginosa serotype B IID1007 incubated for 18 hrs by CLSI based broth microdilution method; assay type: functional
[9] = tested on: Pseudomonas aeruginosa; assay: Antibacterial activity against Pseudomonas aeruginosa serotype B IID1013 incubated for 18 hrs by CLSI based broth microdilution method; assay type: functional
[10] = tested on: Pseudomonas aeruginosa; assay: Antibacterial activity against Pseudomonas aeruginosa serotype D IID1004 incubated for 18 hrs by CLSI based broth microdilution method; assay type: functional
[11] = tested on: Pseudomonas aeruginosa; assay: Antibacterial activity against Pseudomonas aeruginosa serotype J IID1011 incubated for 18 hrs by CLSI based broth microdilution method; assay type: functional
[12] = tested on: Pseudomonas aeruginosa; assay: Antibacterial activity against Pseudomonas aeruginosa isolate 2867 incubated for 18 hrs by CLSI based broth microdilution method; assay type: functional
[13] = tested on: Pseudomonas aeruginosa; assay: Antibacterial activity against Pseudomonas aeruginosa serotype H IID1009 incubated for 18 hrs by CLSI based broth microdilution method; assay type: functional
[14] = tested on: Pseudomonas aeruginosa; assay: Antibacterial activity against Pseudomonas aeruginosa serotype B IID5004 incubated for 18 hrs by CLSI based broth microdilution method; assay type: functional
[15] = tested on: Pseudomonas aeruginosa; assay: Antibacterial activity against Pseudomonas aeruginosa serotype G IID1020 incubated for 18 hrs by CLSI based broth microdilution method; assay type: functional
[16] = tested on: Pseudomonas aeruginosa; assay: Antibacterial activity against Pseudomonas aeruginosa serotype K IID1012 incubated for 18 hrs by CLSI based broth microdilution method; assay type: functional
[17] = Inhibition of Staphylococcus aureus MraY using UDPMurNAc-dansylpentapeptide as substrate incubated for 3 to 4 hrs by fluorescence method
[18] = tested on: Pseudomonas aeruginosa; assay: Antibacterial activity against Pseudomonas aeruginosa isolate 1483 incubated for 18 hrs by CLSI based broth microdilution method; assay type: functional
[19] = tested on: Pseudomonas aeruginosa; assay: Antibacterial activity against Pseudomonas aeruginosa serotype M IID5018 incubated for 18 hrs by CLSI based broth microdilution method; assay type: functional
[20] = tested on: Pseudomonas aeruginosa; assay: Antibacterial activity against Pseudomonas aeruginosa serotype M IID1015 incubated for 18 hrs by CLSI based broth microdilution method; assay type: functional
[21] = tested on: Pseudomonas aeruginosa; assay: Antibacterial activity against Pseudomonas aeruginosa ATCC 27853 incubated for 18 hrs by CLSI based broth microdilution method; assay type: functional
[22] = tested on: Pseudomonas aeruginosa; assay: Antibacterial activity against Pseudomonas aeruginosa serotype C IID1021 incubated for 18 hrs by CLSI based broth microdilution method; assay type: functional
[23] = tested on: Pseudomonas aeruginosa; assay: Antibacterial activity against Pseudomonas aeruginosa isolate 2931 incubated for 18 hrs by CLSI based broth microdilution method; assay type: functional
[24] = tested on: Pseudomonas aeruginosa; assay: Antibacterial activity against Pseudomonas aeruginosa serotype L IID5141 incubated for 18 hrs by CLSI based broth microdilution method; assay type: functional
[25] = tested on: HepG2; assay: Cytotoxicity against human HepG2 cells after 24 hrs by CCK-8 assay; assay type: cell-based; settings: HepG2, 24 h
[26] = tested on: Pseudomonas aeruginosa; assay: Antibacterial activity against Pseudomonas aeruginosa serotype E IID1130 incubated for 18 hrs by CLSI based broth microdilution method; assay type: functional
[27] = tested on: Pseudomonas aeruginosa; assay: Antibacterial activity against Pseudomonas aeruginosa serotype F IID1006 incubated for 18 hrs by CLSI based broth microdilution method; assay type: functional
[28] = tested on: Pseudomonas aeruginosa; assay: Antibacterial activity against Pseudomonas aeruginosa serotype B IID1002 incubated for 18 hrs by CLSI based broth microdilution method; assay type: functional
[29] = Substrate activity at NppA1A2BCD assessed as antibacterial activity against Pseudomonas aeruginosa PAO1 PW4181; assay type: ADME; settings: pseudomonas aeruginosa pao1, 720 h; time 30 day
[30] = Substrate activity at NppA1A2BCD assessed as antibacterial activity against mureidomycin-resistant Pseudomonas aeruginosa PAO1 harboring NppA1A2BCD mutant measured at day 1 post mureidomycin-challenge; assay type: ADME
[31] = Substrate activity at NppA1A2BCD assessed as antibacterial activity against Pseudomonas aeruginosa PAO1 PW4182; assay type: ADME; settings: pseudomonas aeruginosa pao1, 720 h; time 30 day
[32] = tested on: Pseudomonas aeruginosa; assay: Resistance index, ratio of MIC for Pseudomonas aeruginosa PAO1 incubated overnight to MIC for Pseudomonas aeruginosa PAO1 incubated for 18 hrs; assay type: functional
[33] = Substrate activity at NppA1A2BCD assessed as antibacterial activity against mureidomycin-resistant Pseudomonas aeruginosa PAO1 harboring NppA1A2BCD mutant measured at day 30 post mureidomycin-challenge; assay type: ADME
[34] = Substrate activity at NppA1A2BCD assessed as antibacterial activity against mureidomycin-resistant Pseudomonas aeruginosa PAO1 harboring NppA1A2BCD mutant measured at day 2 post mureidomycin-challenge; assay type: ADME

Structure (SMILES): C[C@@H]([C@H](NC(=O)[C@H](CCCNC(=N)N)NC(=O)N[C@@H](Cc1c[nH]c2ccccc12)C(=O)O)C(=O)N/C=C1\O[C@@H](n2ccc(=O)[nH]c2=O)[C@H](O)[C@@H]1O)N(C)C(=O)[C@@H](N)Cc1cccc(O)c1
IC50 [1]: 3.4 nM
MIC [2]: > 128 µg/mL

Structure (SMILES): C[C@H](NC(=O)N[C@@H](Cc1c[nH]c2ccccc12)C(=O)O)C(=O)N[C@H](C(=O)N/C=C1\O[C@@H](n2ccc(=O)[nH]c2=O)[C@H](O)[C@@H]1O)[C@H](C)N(C)C(=O)[C@@H](N)Cc1cccc(O)c1
IC50 [1]: 1.3 nM
MIC [2]: 64 µg/mL (≈ 78.1 µM)

Structure (SMILES): C[C@H](N)C(=O)N(C)[C@@H](C)[C@H](NC(=O)[C@H](C)NC(=O)N[C@@H](Cc1c[nH]c2ccccc12)C(=O)O)C(=O)N/C=C1\O[C@@H](n2ccc(=O)[nH]c2=O)[C@H](O)[C@@H]1O
IC50 [1]: 44 nM
MIC [3]: 16 µg/mL (≈ 22 µM)
MIC [4]: > 128 µg/mL
MIC [5]: > 128 µg/mL
MIC [6]: > 128 µg/mL
MIC [7]: > 128 µg/mL
MIC [8]: > 128 µg/mL
MIC [9]: > 128 µg/mL
MIC [10]: > 128 µg/mL
MIC [11]: > 128 µg/mL
MIC [12]: 32 µg/mL (≈ 44 µM)
MIC [2]: 16 µg/mL (≈ 22 µM)
MIC [13]: 32 µg/mL (≈ 44 µM)
MIC [14]: 64 µg/mL (≈ 87.9 µM)
MIC [15]: > 128 µg/mL
MIC [16]: 64 µg/mL (≈ 87.9 µM)
IC50 [17]: 42 nM
MIC [18]: > 128 µg/mL
MIC [19]: > 128 µg/mL
MIC [20]: > 128 µg/mL
MIC [21]: 32 µg/mL (≈ 44 µM)
MIC [22]: 16 µg/mL (≈ 22 µM)
MIC [23]: > 128 µg/mL
MIC [24]: 32 µg/mL (≈ 44 µM)
IC50 [25]: > 100000 nM
MIC [26]: > 128 µg/mL
MIC [27]: > 128 µg/mL
MIC [28]: > 128 µg/mL

Structure (SMILES): C[C@@H]([C@H](NC(=O)[C@H](CCC(N)=O)NC(=O)N[C@@H](Cc1c[nH]c2ccccc12)C(=O)O)C(=O)N/C=C1\O[C@@H](n2ccc(=O)[nH]c2=O)[C@H](O)[C@@H]1O)N(C)C(=O)[C@@H](N)Cc1cccc(O)c1
IC50 [1]: 1.3 nM
MIC [2]: 128 µg/mL (≈ 146 µM)

Structure (SMILES): CSCC[C@H](NC(=O)N[C@@H](Cc1cccc(O)c1)C(=O)O)C(=O)N[C@H](C(=O)N/C=C1\O[C@@H](n2ccc(=O)[nH]c2=O)[C@H](O)[C@@H]1O)[C@H](C)N(C)C(=O)[C@@H](N)Cc1cccc(O)c1
IC50 [1]: 1.3 nM
MIC [3]: 4 µg/mL (≈ 4.67 µM)
MIC [4]: 16 µg/mL (≈ 18.7 µM)
MIC [5]: 32 µg/mL (≈ 37.3 µM)
MIC [6]: 64 µg/mL (≈ 74.7 µM)
MIC [7]: 32 µg/mL (≈ 37.3 µM)
MIC [8]: 32 µg/mL (≈ 37.3 µM)
MIC [29]: > 128 µg/mL
MIC [9]: > 128 µg/mL
MIC [10]: 8 µg/mL (≈ 9.34 µM)
MIC [30]: > 64 µg/mL
MIC [11]: 16 µg/mL (≈ 18.7 µM)
MIC [31]: > 128 µg/mL
Ratio [32]: 8
MIC [33]: > 64 µg/mL
MIC [12]: 8 µg/mL (≈ 9.34 µM)
MIC [2]: 4 µg/mL (≈ 4.67 µM)
MIC [13]: 8 µg/mL (≈ 9.34 µM)
MIC [14]: 8 µg/mL (≈ 9.34 µM)
MIC [15]: 8 µg/mL (≈ 9.34 µM)
MIC [16]: 16 µg/mL (≈ 18.7 µM)
MIC [34]: > 64 µg/mL
MIC [18]: 8 µg/mL (≈ 9.34 µM)
MIC [19]: > 128 µg/mL
MIC [20]: 16 µg/mL (≈ 18.7 µM)
MIC [21]: 4 µg/mL (≈ 4.67 µM)
MIC [22]: 8 µg/mL (≈ 9.34 µM)
MIC [23]: 16 µg/mL (≈ 18.7 µM)
MIC [24]: 4 µg/mL (≈ 4.67 µM)
IC50 [25]: > 100000 nM
MIC [26]: 16 µg/mL (≈ 18.7 µM)
MIC [27]: > 128 µg/mL
MIC [28]: 16 µg/mL (≈ 18.7 µM)

Next, values leading:

IC50 [1]: 0.22 nM
MIC [2]: 16 µg/mL (≈ 17.5 µM)
Structure (SMILES): C[C@@H]([C@H](NC(=O)[C@H](Cc1ccc(O)cc1)NC(=O)N[C@@H](Cc1c[nH]c2ccccc12)C(=O)O)C(=O)N/C=C1\O[C@@H](n2ccc(=O)[nH]c2=O)[C@H](O)[C@@H]1O)N(C)C(=O)[C@@H](N)Cc1cccc(O)c1

IC50 [1]: 7.6 nM
MIC [2]: > 128 µg/mL
Structure (SMILES): C[C@@H]([C@H](NC(=O)[C@H](CC(=O)O)NC(=O)N[C@@H](Cc1c[nH]c2ccccc12)C(=O)O)C(=O)N/C=C1\O[C@@H](n2ccc(=O)[nH]c2=O)[C@H](O)[C@@H]1O)N(C)C(=O)[C@@H](N)Cc1cccc(O)c1

IC50 [1]: 2.8 nM
MIC [2]: > 128 µg/mL
Structure (SMILES): C[C@@H]([C@H](NC(=O)[C@H](Cc1cnc[nH]1)NC(=O)N[C@@H](Cc1c[nH]c2ccccc12)C(=O)O)C(=O)N/C=C1\O[C@@H](n2ccc(=O)[nH]c2=O)[C@H](O)[C@@H]1O)N(C)C(=O)[C@@H](N)Cc1cccc(O)c1
